Measurements as given in patent publication US20150216921A1, “BASE POWDER FROM THE RED RASPBERRY RUBUS IDAEUS AND ACTIVATED MICRONIZED ZEOLITE FOR ATTENUATING NICOTINE ADDICTION, METHOD FOR THE PREPARATION THEREOF AND USE THEREOF” (University fo Hidalgo, priority 2011, published 2015).

Tests used:
[1] = tested on: anxiety caused by nicotine withdraw syndrome; experiment: High-cross test, anxiety caused by nicotine withdraw syndrome; assay type: in vivo; conditions: mice, nicotine for 14 consecutive days then suspended
From the text: (§1) 7. Using raspberry powder and pure ellagic acid (Sigma Aldrich) two experiments in mice were developed, one was to evaluate the effect of those in the anxiety caused by nicotine withdraw syndrome; and the other was to evaluate the nicotine addiction. Based on the process mentioned in the Mexican Institute of Industrial Property in patent application number Mx/a/2010/000827 record dated 21/ENE/2010, folio MX/E/2010/004489. In the first case the high-cross test was used and in the second test site selectivity paradigm. Nicotine was administered to mice for 14 consecutive days and when it was suspended, anxiety was developed.

[2] = tested on: lung tumorogenesis of benzo [a] pyrene; conditions: cited from earlier work
[3] = tested on: tumorigenicity of the nitrosamine NNK; conditions: dose of 4g/kg; cited from earlier work
nicotine addiction = experiment: Site selectivity paradigm, nicotine addiction; assay type: in vivo; conditions: mice conditioned by nicotine
From the text: as §1

smoking = experiment: Smoking cessation and follow-up by telephone; assay type: in vivo, humans
From the text: (§2) 9. Treatment 1:—Two persons, a person and a person […], used ZAM ® (activated and micronized zeolite) at doses of 5 g daily during 14 days.
(§3) 10. Treatment 2:—Two persons, a person and a person […], used the raspberry powder recorded in January 2010 in the Mexican Institute of Industrial Property (patent application number record Mx/ a/2010/ 000827, at folio MX/E/2010/004489). At a dose of 5 g per day during 14 days.
(§4) 11. Treatment 3: A person, a person used a commercial product of raspberry, with similar characteristics to the raspberry powder, mentioned in the previous section, in combination with ZAM® (activated and micronized zeolite) at dose of 5 g per day.
(§5) 12. Treatment 4: Two persons, a person and a person, used raspberry powder registered in the patent application number Mx/a/2010/000827, folio MX/E/2010/004489) in combination with ZAM® (micronized and activated zeolite) in a dose of 7 g per day during 14 days.
(§6) 13. Treatment 5:—A person used varenicline, commercial brand, at dose of 1 mg twice daily during 7 days, then 0.5 mg daily for the next 3 days; continuing with 0.5 mg twice a day during 4 days, and finally 1 mg during 1 day, every 12 h. This cycle was repeated 12 weeks. Treatment 5.

[4] = tested on: anxiety (withdrawal syndrome); experiment: Hamilton Anxiety Scale in persons quitting smoking; assay type: in vivo, humans; conditions: one person, 12 weeks treatment
From the text: as §2, §3, §4, §5
13. […]
14. Anxiety was assessed by the Hamilton Anxiety Scale (Hamilton, 1969; Bulbena, 2000; APA, 2000) and the degree of nicotine dependence with Fagerstrom test (1991). […]
16. 14 scale items were evaluated, 13 related to anxiety symptoms and signs, and the last item values the patient's behavior during the assessment interview. […]
17. The physician scored from 0 to 4 points each item, assessing both the intensity and the frequency of it. […]

[5] = tested on: physical dependence on nicotine; experiment: Fagerstrom test, degree of nicotine dependence; assay type: in vivo, humans; conditions: persons quitting smoking, at end of treatment
From the text: as §2, §3, §4, §5, §6
14. Anxiety was assessed by the Hamilton Anxiety Scale (Hamilton, 1969; Bulbena, 2000; APA, 2000) and the degree of nicotine dependence with Fagerstrom test (1991).
25. […]

Structure (SMILES)	signs related to anxiety caused by the refraining from exposure to nicotine [1]	effect against tumorogenesis in lung of benzo [a] pyrene ([2]; intra peritoneal injection)	inhibition in the lung tumorogenesis of benzo [a] pyrene ([2]; mice feed by EA at a dose of 400 mg/kg) [%]	inhibition of tumor multiplicity [3] [%]	nicotine-conditioned behavior (nicotine addiction)	relapse a month after the treatment (smoking; monitoring by telephone, 1 month after treatment ends)	smoking cessation during treatment period (smoking; persons, during treatment / proposed period)	Hamilton Anxiety Scale, anxiety during the first month of treatment [4]	Hamilton Anxiety Scale, anxiety during the second and third month [4]	Fagerstrom test, physical dependence after treatment [5]
O=c1oc2c(O)c(O)cc3c(=O)oc4c(O)c(O)cc1c4c23 [ellagic acid, 2,3,7, 8—tetrahidrobenzopirano [5,4, 3—cde] benzopiran-5-10 diona]	significantly reduce	not effective	90	54	modulate this behavior in a significant way					
c1cnc2cc3c(cc2n1)[C@@H]1CNC[C@H]3C1 [varenicline]						fall smoking again	quit smoking in the second month of treatment	less anxiety	increased anxiety	high (The Smokers with 6 or 7 points suffer high physical dependence)
